This data set can be described thus: NMR detection of 13C/15N-labeled RNA in mouse serum sampled three hours after inoculation into the tail. It is filed as in vivo, mice (BALB/cAnNCr). The settings on record: for signals derived from base pairs, 500 MHz 1H-NMR spectra of exchangeable protons (imino protons) / signals derived from nucleic acid bases, 500 MHz 1H-NMR spectra of non-exchangeable protons (9 to 6.5 ppm): 25° C. Here is the method: Four female SPF/VAF mice (BALB/cAnNCr, 8 weeks old, No. 1 to No. 4) supplied by Charles River Japan, Inc. were used for the experiment.
The abovementioned oligonucleotide (5 mg) was dissolved in 120 μl of a physiological saline solution to prepare four […] samples. Two samples were administered without a drug delivery system. The abovementioned histone subunit mixture was added to the remaining two samples to form a complex. • Sample 1: ^13C—^15N-labeled RNA (inoculated into and sampled from No. 1 mouse) • Sample 2: ^13C—^15N-labeled RNA (inoculated into and sampled from No. 2 mouse) • Sample 3: the complex of ^13C—^15N-labeled RNA and the drug delivery system (inoculated into and sampled from No. 3 mouse) • Sample 4: the complex of ^13C—^15N-labeled RNA and the drug delivery system (inoculated into and sampled from No. 4 mouse)
Each sample solution (100 μl), which was adjusted to 62.5 mg/kg, was inoculated into the tail of the abovementioned mice. Three hours after the inoculation, the mice were anesthetized with ether and about 1 ml of whole blood was sampled from the heart. This whole blood was allowed to stand at room temperature for 30 minutes, and then centrifuged at 1,500 rpm at room temperature for 15 minutes. Supernatant serum obtained by the centrifugation was subjected to NMR measurement as follows. Heavy water (20 μl) was added to the samples (400 μl each) obtained by the abovementioned centrifugation, and the measurement of NMR spectra was carried out at 25° C. A DRX-500 NMR spectrometer (BRUKER) was used for the measurement. Pre-saturation was carried out for the measurement of non-exchangeable protons and jump-and-return pulses were used for the measurement of exchangeable imino proton spectra.

[1] abbreviates: mouse serum, three hours after inoculation, 62.5 mg/kg, 62.5 mg/kg.
Setting [2] is: mouse serum, three hours after inoculation, 62.5 mg/kg, listed as Sample 2, 62.5 mg/kg.

“Also recorded” adds a separate entry of the source.

In the case of “Sample 1: oligonucleotide comprising 43 bases shown in SEQ ID No. 1, RNA labeled with 13C and 15N, administered without a drug delivery system (antisense GGGAGAGGGCAACCUGACCUGUUAUCAUCGCAAGAAGCUUCCG; RNA, phosphodiester; uniformly 13C/15N isotope-labeled ribonucleotides)”, the “detection of the oligonucleotide by NMR” value is, setting by setting: (complex with the drug delivery system (histone subunit mixture) formed, mouse serum, three hours after inoculation) “entire length of the oligonucleotide was detected”; (no complex with the drug delivery system formed, mouse serum, three hours after inoculation) “barely detected”. Further, for the setting “mouse serum, three hours after inoculation, 62.5 mg/kg”, the “13C-1H HMQC spectra of non-exchangeable protons” value is “Only noise, and no spectrum derived from RNA”. Further, the “signals derived from base pairs, 500 MHz 1H-NMR spectra of exchangeable protons (imino protons)” value runs as follows: under setting [1], “Absolutely no signal; also recorded: barely detected”; under setting [2], “Absolutely no signal; also recorded: barely detected”. The “signals derived from nucleic acid bases, 500 MHz 1H-NMR spectra of non-exchangeable protons (9 to 6.5 ppm)” value runs as follows: under setting [1], “only extremely weak signals; also recorded: barely detected”; under setting [2], “only extremely weak signals; also recorded: barely detected”. In addition, under “when the drug delivery system was used, mice”, the “time the antisense chain existed in the blood” value is “up to 3 hours”. Moreover, the “decomposition of the RNA present in the blood” value (when the drug delivery system was used, mice, three hours after inoculation) is on record as “did not undergo partial decomposition”.

The values above are taken from patent US7038036B2, “Oligonucleotides labeled with stable isotopes and a method for detecting the same” (Taiyo Nippon Sanso Corporation, priority 1999, dated 2006).
